Assay results: patent US20150174144A1, “TETRACYCLINE COMPOUNDS FOR TREATING NEURODEGENERATIVE DISORDERS” (PARATEK PHARMACEUTICALS, INC., priority 2012, published 2015)

Experiments:
[1] = Alkylperoxy radical scavenging assay (AIPH, AE-Trolox oxidation)
Method: In a separate assay, alkylperoxy radicals were generated in vitro using the radical generator AIPH (2,2′-azobis-[2-(2-imidazolyn-2-yl)-propane) and the ability of tetracyclines to scavenge these radicals was determined. […] Also, the ability of Compound 1 and minocycline to specifically scavenge peroxynitrite-carbonate radicals was determined.
In this study, alkylperoxy radicals were generated in vitro using the radical generator AIPH (2,2′-azobis-[2-(2-imidazolyn-2-yl)-propane) and the ability of tetracyclines, such as Compound 1, to scavenge these radicals was determined.
Trolox is a known scavenger of peroxyradicals. Structurally similar to a-tocopherol, Trolox reacts with peroxyradicals via a known mechanism with linear kinetics under excess oxygen conditions. In the presence of a competing antioxidant compound, the rate of Trolox oxidation will change based on the relative rate of oxidation and concentration of the competing antioxidant compound (Huang, et al., J. Agric. Food Chem. 2005, 25, 1841-1856). By measuring the effect of antioxidant concentration on the rate of degradation of Trolox, the relative antioxidant capacity of a compound can be determined. This principle is the basis of the widely used antioxidant capacity assay, ORAC (Huang, et al., J. Agric. Food Chem. 2002, 50, 1815-1821). Unlike ORAC which uses a fluorescent dye indicator, the assay described here directly measures the oxidation of the Trolox derivative, 2-aminoethyl-Trolox (AE-Trolox). This method eliminates interference of the fluorescent dye reaction by tetracycline compounds.
To the first column of a 96-well PCR plate (0.2 mL volume) was added 160 μL of TCWS. One well of the first column would equal one IC50 determination. […] To the remaining wells in columns 2-11 was added 80 μL of AET-WS. Using a multichannel pipettor, column 1 was serially diluted in 2-fold dilutions by removing 80 μL from column 1 and transferring with mixing to column 2. Column 2 was then diluted to column 3 and so on until column 11 where 80 μL of the diluted mixture was removed and discarded. Four wells of row 12 were designated as the 0 test compound/0 AIPH control to which 80 μL of AET-WS was added. One well of row 12 per test compound was designated as the 0 test compound control to which 80 μL of the AET-WS was added.
The plate was covered and incubated for 5 minutes at 37° C. upon which the reaction was initiated by addition of 20 μL of AIPH to columns 1-11 using a multichannel pipettor with mixing. The reaction was initiated similarly to the 0 test compound wells of column 12. To the 0 test compound/0 AIPH control wells was added 20 μL of PB buffer. The plate was incubated at 37° C. for 8 minutes (the reaction is linear for 10 minutes) and quenched by addition of 50 μL of AA to all wells with mixing. The plate was placed on ice for 5 minutes. Quenched assay mixtures were stable at room temperature for at least 24 hours.
Each reaction mixture was analyzed for AE-Trolox by 2D-LCMS on a Shimadzu 2010 equipped with a loading column (Shim-pack MAYI-ODS, 4.6×10 mm) and a gradient column Phenomenex Luna C18(2) column, 3 um, 4.6×50 mm. Using an automated 2-position swithching valve, samples were loaded onto the loading column by Pump C and washed for 1 minute with loading buffer. At 1 minute, the valve was switched to elution position (Position B, reversed flow through loading column) and the samples were eluted through the gradient column. The loading buffer (Buffer C) was 10% acetonitrile in water with 0.2% formic acid and the gradient buffers were water+0.2% formic acid (A buffer) and acetonitrile+0.2% formic acid (B buffer). Typical injection volumes were 30 μL.
From the TIC integration of AE-Trolox and AE-Trolox-d4, a ratio was calculated:
Ratio=AUCAE-Trolox/AUCAE-Trolox-d4
Percent inhibition of AE-Trolox oxidation (measured as disappearance of AE-Trolox) was then determined by:
% Inhibition=[1−((Ratio0−Ratiox)/(Ratioo−Ratiof))]*100

Genotoxicity = settings: pre-clinical safety studies
CYP450 = CYP450 inhibition or induction; assay type: in vitro ADME; settings: pre-clinical ADME studies
Metabolism = assay type: in vitro ADME; settings: pre-clinical ADME studies
[2] = tested on: focal cerebral ischemia (temporary MCA occlusion); experiment: Rat stroke model, 90 min temporary MCA occlusion; assay type: in vivo, Male Wistar rats; settings: for Neurological score / Infarct volume (Means ± SD): temporary; for Infarct volume (Means ± SD): 24 hr after MCAO; for Effect on infarct volume: temporary occlusion
Fmr1 KO2 mice = experiment: Contextual fear conditioning, mouse model of Fragile X Syndrome; assay type: in vivo; settings: acute stress conditions
Method: The purpose of this study was to test Compound 1 for treating Fragile X Syndrome. This study utilized Fmr1 KO mice, an animal model of Fragile X Syndrome.
The Fmr1 KO mice (C57BL/6 background) were kindly provided the FRAXA Foundation. Mice were housed in groups of the same genotype in a temperature and humidity controlled room with a 12-h light-dark cycle (lights on 7 am to 7 pm). Testing was conducted during the light phase. Food and water were available ad libitum. Testing was conducted on Fmr1 KO mice and their wild-type littermates. They were housed in commercial plastic cages purchased in the UK. Experiments were conducted in line with the requirements of the UK Animals (Scientific Procedures) Act, 1986.
The dosing protocol used is shown below. Mice were dosed at 6-7 weeks by intraperitoneal (i.p.) infusion by osmotic pump (0.5 μl/hour) for 1 week. The solution of 0.9% saline was used as a vehicle, and 10 mice were dosed per each group.
Freezing as a species-specific response to fear was measured.

[3] = 20 mg/kg i.v. at 30 min, 6 hr after MCAO
[4] = 40 mg/kg i.v. at 60 min, 6 hr after MCAO
[5] = 40 mg/kg i.v. at 3 hr, 8 hr after MCAO

## CCc1cc(N(C)C)c2c(c1O)C(=O)C1=C(O)[C@]3(O)C(=O)C(C(N)=O)=C(O)[C@@H](N(C)C)[C@@H]3C[C@@H]1C2 [Compound 1]
[1]; 5 mM AIPH, 37° C., 8 minutes, read-out: IC50, inhibition of AE-Trolox oxidation (alkylperoxy radical scavenging)
  IC50: 12.6 µM
[1]; relative to Trolox
  Percent Trolox Activity: 71%
  Trolox Equivalents: 0.71
Genotoxicity
  Effects in genotoxicity: no significant effects
CYP450
  Effects in CYP450 inhibition or induction: no significant effects
Metabolism
  Effects in metabolism: no significant effects
[2]; [3]
  Neurological score: 1.5 ± 0.5
  Infarct volume (Means ± SD): 139.2 ± 32.2 mm3
[2]; [4]
  Neurological score: 1.3 ± 0.5
  Infarct volume (Means ± SD): 125.9 ± 49.9 mm3
[2]; [5]
  Neurological score: 1.4 ± 0.5
  Infarct volume (Means ± SD): 172.8 ± 45.3 mm3
[2]; treatment initiated three hours post occlusion
  Effect on infarct volume: did not demonstrate an ability to reduce infarct volume
[2]; treatment started at 30 or 60 min after MCA occlusion
  Effect on infarct volume: statistically significant reductions in infarct volume
Fmr1 KO2 mice
  Contextual fear conditioning, learning deficit (freezing): failed to fully rescue the learning deficit
